Reference: patent US20200032249A1, “LABELING, ISOLATION, & ANALYSIS OF RNA FROM RARE CELL POPULATIONS” (priority 2017, published 2020)

Legend:
MDA231 cells = assay: stress granule formation by G3BP immunostaining; type: cell-based; details: 500 μM sodium arsenite, positive control
Procedure: FIG. 2a-b. Flura-tagging has minimal cytotoxicity. FIG. 2a—Effect of Flura-tagging on stress granule formation. MDA231 cells were treated with 5-FC for the indicated times, and the formation of stress granules was detected by G3BP immunostaining. Control cells were either treated with water or sodium arsenite (Arsenite) for one hour. Arrows indicate stress granules (n=3). Scale bar=20 μM. FIG. 2b—Effect of Flura-tagging on transcription. RNA expression in control cells was compared to CD/UPRT-expressing cells treated with the indicated concentrations of 5-FC for 4 h or 12 h. Each dot represents a gene, with the outer/lighter gray dots indicating genes showing more than 2-fold differential expression, as determined by DESeq2 (n=2). The dotted line represents the four-fold cutoff mark.
5-FU is extensively used as a chemotherapeutic agent for the treatment of solid tumors, based on its ability to induce cancer cell death by inhibiting thymidylate synthase and by causing DNA and RNA damage (12-14). It was therefore crucial to test whether our 5-FU-tagging method, which is based on low concentrations of 5-FC and short incubation time periods, has significant cytotoxic effects under our experimental conditions. CD/UPRT-expressing cells were treated with 5-FC at concentrations of up to 250 μM for up to 12 h (“Flura-tagged” cells), and the effects of this treatment on RNA damage response and transcriptional regulation were investigated.
A key feature of the RNA damage response is the formation of stress granules (15). Ras GTPase-activating protein-binding protein 1 (G3BP), a key component of stress granules, forms distinct foci during stress granule formation (12). We determined the dose- and time-dependent effect of 5-FC treatment on stress granule formation by immunostaining of the cells with anti-G3BP antibody. […] The 5-FC-treated cells started to form stress granules only after 24 h of treatment with 1 mM 5-FC, a concentration four times higher than the maximal concentration of 5-FC used for Flura-tagging, or after 48 h of 5-FC treatment at lower concentrations (FIG. 2a).
Human embryonic kidney transformed with […] (293T) and human breast cancer MDA-MB-231 (MDA231) cells were cultured in DMEM High Glucose medium (Wheaton) supplemented with 10% Fetal Bovine Serum (Clontech, Catalog number 631106) supplemented with 2 mM L-Glutamine. All cell lines have been routinely tested for mycoplasma contamination. For the induction of CD or CD and UPRT, cells were treated with 1 μg/ml doxycycline for 24 h. For Fluorouracil tagging, cells were treated with 250 μM of 5-FC or 5-FU unless indicated. Where indicated, 125 μM thymine was added together with 5-FC. […]

[1] = system: MDA231 cells expressing CD/UPRT in mouse lungs; assay: signal-to-noise ratio of Flura-tagging and TU-tagging in vivo, lung colonization xenograft, RT-PCR; details: 250 mg/kg, 12 h post injection
Procedure: FIG. 3 a-g. Flura-tagging of mRNA in vivo. FIG. 3a—Schematic diagram of lung colonization xenograft assay used for evaluation of Flura-tagging/Flura-seq. Athymic mice were injected through the tail vein with 50,000 MDA231 cells expressing CD/UPRT and GFP-luciferase. Upon the development of detectable bioluminescent lung metastases (4 weeks), mice were treated with doxycycline to induce CD/UPRT expression and injected with 5-FC. Lungs were harvested, and Flura-tagged mRNAs were immunopurified. FIG. 3b—Comparison of signal-to-noise ratio of Flura-tagging and TU-tagging in vivo. Mice were injected with either 5-FC or TU, the Flura-tagged or TU-tagged mRNAs were purified 12 h post injection, and the relative fold enrichment of representative human housekeeping genes relative to representative murine housekeeping genes (mHPRT1, mLDH1, mPGK1 and mGAPDH), normalized to their corresponding unpurified inputs, were measured by RT-PCR (n=5, ±S.E.). FIG. 3c—Quantification of the number of human cells in the mouse lungs used for Flura-tagging. Half of the mouse lungs used for Flura-tagging in FIG. 3b was dissociated into single cells, and the number of RFP+ cells was quantified using flow cytometry. The total number of MDA231 cells per lung was estimated based on an assumption of 1.5×10^8 cells per mouse lung (20) (n=5). […] RNA reads were aligned to a hybrid genome containing the human and mouse genomes. […]

293T cells = assay: anti-BrdU immunofluorescent staining of 293T cells treated with 5-FC or 5-FU; type: cell-based, human; details: untransfected control 293T cells, 250 μM, 24 h
Procedure: S. cerevisiae CD was exogenously expressed in human embryonic kidney 293T cells, and the cells were treated with 250 μM fluorocytosine (5-FC). This system is predicted to generate intracellular fluorouracil (5-FU), which is then incorporated into newly synthesized RNAs (FIG. 1a, b). Antibodies against bromodeoxyuridine (BrdU) can recognize BrdU and other halogenated uridines incorporated into nucleic acids (8).
Human embryonic kidney transformed with […] (293T) and human breast cancer MDA-MB-231 (MDA231) cells were cultured in DMEM High Glucose medium (Wheaton) supplemented with 10% Fetal Bovine Serum (Clontech, Catalog number 631106) supplemented with 2 mM L-Glutamine. All cell lines have been routinely tested for mycoplasma contamination. For the induction of CD or CD and UPRT, cells were treated with 1 μg/ml doxycycline for 24 h. For Fluorouracil tagging, cells were treated with 250 μM of 5-FC or 5-FU unless indicated. Where indicated, 125 μM thymine was added together with 5-FC. For the formation of stress granules, cells were treated with 500 μM Sodium Arsenite (Santa Cruz Biotechnologies, Catalog number SC-301816).
Cells were fixed with 4% paraformaldehyde for 10 min, permeabilized with 0.2% TritonX-100 for 10 min, blocked with 5% BSA for one hour at room temperature, prior to incubation with primary antibodies at 4° C. overnight, and secondary antibodies (Thermo Fisher anti-chicken antibody, Catalog number A-11039, Thermo Fisher anti-rat antibody, Catalog number A-11006, Abcam anti-rat antibody, Catalog number ab150117) incubated for 1 h at room temperature. Mouse lungs were fixed in 4% paraformaldehyde overnight at 4° C., embedded in paraffin and sectioned. The lung sections were deparaffinized and stained with hematolxylin/eosin or immunostained using standard protocols. Automated image analysis was performed using the FIJI software package.

`O=[As]O` [sodium arsenite] was tested, and the “time to formation of distinct G3BP foci” value (MDA231 cells) was at most 1 h.

In the case of `O=c1cc[nH]c(=S)[nH]1` [thiouracil], the “enrichment of human mRNAs compared to mouse mRNAs” value [1] is reported as “approximately 10 fold”.

With `O=c1[nH]cc(F)c(=O)[nH]1` [5-FU, 5-fluoro-uracil] the “immunostaining with anti-BrdU antibody” value (293T cells) was “positive immunostaining”.
